What all share (assay type): cell-based
The subject of experiment [1] is RPMI8226/B cells (bortezomib-resistant myeloma cell line). Briefly: Cell death inducing effect on RPMI8226/B cells, trypan blue staining. Particulars: RPMI8226/B (myeloma; bortezomib resistance), cell viability. The method, then:
RPMI8226/B cells (bortezomib-resistant myeloma cell line) were cultured under 5% CO2 at 37° C. The culture medium used RPMI-1640 medium with 100 μg/mL penicillin, 100 U/mL streptomycin and fetal bovine serum. RPMI8226/B cells were seeded into 96-well plates and incubated with each concentration of the compounds was added, and cell viability was determined by the trypan blue staining.
(§1) For controls, only 0.5% DMSO (diluted in PBS) used to dissolve the compounds was added. For each concentration, each bar line is indicated by an arrow with the sign “n, a, 1, 2, 3, 4, 5, 6, 7, 8, 9, 10, 11, 12” from left to right. The “1, 3, 5, 7, 9, 11” are omitted from the graph, but the sign “1” shall be indicated by an arrow between the signs “a” and “2”, the sign “3” between the signs “2” and “4”, and other odd numbers shall likewise be indicated by arrows between even numbers before and after.
(§2) The sign “n” is the norathyriol (formula (n)) administration group, the sign “a” is the mangiferin 8a (formula (a)) administration group, the sign “1” is the yk-7 (formula (1)) administration group, the sign “2” is the yk-8-1 (formula (2)) administration group, the sign “3” is the yk-8-3 (formula (3)) administration group, the sign “4” is the M7 (formula (4)) administration group, the sign “5” is the M9 (formula (5)) administration group, the sign “6” is the M11 (formula (6)) administration group, the sign “7” is the M12 (formula (7)) administration group, the sign “8” is the M14 (formula (8)) administration group, the sign “9” is the M15 (formula (9)) administration group, the sign “10” is the M16 (formula (10)) administration group, the sign “11” is the M18 (formula (11)) administration group, the sign “12” is the M19 (formula (12)) administration group, respectively. The IC50 values for each compound is also listed in the upper right corner of the figure.

For experiment [2], the system named is RPMI8226 cells (myeloma cell line). Briefly: Cell death inducing effect on RPMI8226 cells, trypan blue staining. The method, then:
RPMI8226 cells (myeloma cell line) were cultured under 5% CO2 at 37° C. The culture medium used RPMI-1640 medium with 100 μg/mL penicillin, 100 U/mL streptomycin and fetal bovine serum. RPMI8226 cells were seeded into 96-well plates and incubated with each concentration of the compounds was added, and cell viability was determined by the trypan blue staining.
as §1, §2

Experiment [3] deals with CCRF-SB cells (acute lymphocytic leukemia cell line). Briefly: Cell death inducing effect on CCRF-SB cells, trypan blue staining. Particulars: CCRF-SB (acute lymphoblastic leukemia), cell viability. The method, then: CCRF-SB cells (acute lymphocytic leukemia cell line) were cultured under 5% CO2 at 37° C. The culture medium used RPMI-1640 medium with 100 μg/mL penicillin, 100 U/mL streptomycin and fetal bovine serum. CCRF-SB cells were seeded into 96-well plates and incubated with each concentration of the compounds was added, and cell viability was determined by the trypan blue staining.
as §1, §2

Experiment [4] has as its system SU-DHL-4 cells (diffuse large B-cell lymphoma). As to the kind of experiment: Cell death inducing effect on SU-DHL-4 cells, trypan blue staining. The settings on record: SU-DHL-4 (DLBCL), cell viability. On the procedure: SU-DHL-4 cells (diffuse large B-cell lymphoma) were cultured under 5% CO2 at 37° C.
The culture medium used RPMI-1640 medium with 100 μg/mL penicillin, 100 U/mL streptomycin and fetal bovine serum. SU-DHL-4 cells were seeded into 96-well plates and incubated with each concentration of the compounds was added, and cell viability was determined by the trypan blue staining.
as §1, §2

For experiment [5], the system named is Raji cells (burkitt lymphoma cell line). As to the kind of experiment: Cell death inducing effect on Raji cells, trypan blue staining. The settings on record: Raji (Burkkit lymphoma), cell viability. On the procedure:
Raji cells (burkitt lymphoma cell line) were cultured under 5% CO2 at 37° C. The culture medium used RPMI-1640 medium with 100 μg/mL penicillin, 100 U/mL streptomycin and fetal bovine serum. Raji cells were seeded into 96-well plates and incubated with each concentration of the compounds was added, and cell viability was determined by the trypan blue staining.
as §1, §2

The test system of experiment [6] is L363 cells (myeloma cell line). As to the kind of experiment: Cell death inducing effect on L363 cells, trypan blue staining. The method, then: L363 cells (myeloma cell line) were cultured under 5% CO2 at 37° C. The culture medium used RPMI-1640 medium with 100 μg/mL penicillin, 100 U/mL streptomycin and fetal bovine serum. L363 cells were seeded into 96-well plates and incubated with each concentration of the compounds was added, and cell viability was determined by the trypan blue staining.
as §1, §2

Experiment [7] has as its system Rec-1 cells (mantle cell lymphoma cell line). Briefly: Cell death inducing effect on Rec-1 cells, trypan blue staining. The settings on record: Rec-1 (mantle cell lymphoma), cell viability. The method, then:
Rec-1 cells (mantle cell lymphoma cell line) were cultured under 5% CO2 at 37° C. The culture medium used RPMI-1640 medium with 100 μg/mL penicillin, 100 U/mL streptomycin and fetal bovine serum. Rec-1 cells were seeded into 96-well plates and incubated with each concentration of the compounds was added, and cell viability was determined by the trypan blue staining.
as §1, §2

The test system of another experiment is CD20. As to the kind of experiment: CD20 expression in KMS-28BM cells, flow cytometry. Particulars: 10 days, concentration lower than the IC50 (0.005-50 μM), compared to the positive control. On the procedure:
As a control, compounds untreated KMS-28BM cells were seeded in 75 cm^2 flasks and incubated for 10 days at 37° C. and 5% CO2. KMS-28BM cells were seeded into 75 cm^2 flasks and pre-cultured for 4 h. After incubation, KMS-28BM cells were treated with […], 0.05 μM M9, 0.1 μM yk-7, 0.1 μM yk-8-3, 50 μM yk-8-1, 0.5 μM M11, […], 0.005 μM M14, 0.005 μM M15, 0.005 μM M16, 0.5 μM M18, and 0.5 μM M19 at final concentrations, and incubated for 10 days at 37° C. and 5% CO2. This added amount is a concentration lower than the IC50 of the above compounds for KMS-28BM cells. After 10 days of incubation, cells were stained with anti-CD20 antibody, a B cell marker, and CD20 expression was measured using BD LSRFortessa. CCRF-SB cells were used as CD20-positive controls.
Results are shown in FIG. 21, FIG. 22, FIG. 23, and FIG. 24. The horizontal axis represents the expression level of CD20 and the vertical axis represents the number of cells.

[8] abbreviates: Homo sapiens, RPMI-8226, cell viability.
[9] abbreviates: Homo sapiens, L-363, cell viability.

For “1,2′,3′,4′,6-penta-O-propionylmangiferin [Compound 8a, reference compound]”, the 50% inhibitory concentration (IC50) in experiment [1] was 892 nM; in experiment [2] (cell viability), 7090 nM; in experiment [3], 7420 nM; in experiment [4], 8060 nM; in experiment [5], 4150 nM; in experiment [6] (cell viability), 5600 nM. The molecule further displayed a concentration for half-maximal inhibition (IC50) in experiment [7] of 22500 nM.
In the case of `CCC(=O)OC[C@H]1O[C@@H](c2c(OC(=O)CC)cc3oc4cc(OC(=O)CC)c(OC(=O)CC)cc4c(=O)c3c2OC(=O)CC)[C@H](OC(=O)CC)[C@@H](OC(=O)CC)[C@@H]1OC(=O)CC` [Compound M7, 1,3,2′,3′,4′,6,6′,7-octa-O-propionylmangiferin], the IC50 in experiment [1] (Homo sapiens, RPMI-8226) worked out at 251 nM; in experiment [2] (setting [8]), 6420 nM; in experiment [3] (Homo sapiens), 6760 nM; in experiment [4] (Homo sapiens) it was 771 nM; in experiment [5] (Homo sapiens), 898 nM; in experiment [6] (setting [9]), 5100 nM. In experiment [7] (Homo sapiens, Rec1), this molecule showed an IC50 of 2250 nM. In the experiment with CD20, the CD20 expression level result is on record as “significantly increased”.
Consider `CCC(=O)OC[C@H]1O[C@@H](c2c(O)cc3oc4cc(O)c(O)cc4c(=O)c3c2O)[C@H](OC(=O)CC)[C@@H](OC(=O)CC)[C@@H]1OC(=O)CC` [Compound M9, 2′,3′,4′,6′-tetra-O-propionylmangiferin], for which the half-inhibitory concentration (IC50) in experiment [1] (Homo sapiens, RPMI-8226) came out at 69 nM; in experiment [2] (setting [8]), 696 nM; in experiment [3] (Homo sapiens) it was 1620 nM; in experiment [4] (Homo sapiens) it was 86 nM; in experiment [5] (Homo sapiens) it was 227 nM; in experiment [6] (setting [9]), 620 nM. In experiment [7] (Homo sapiens, Rec1), this molecule showed a concentration for half-maximal inhibition (IC50) of 816 nM. Further, in the experiment with CD20, the CD20 expression level result is listed as “significantly increased”.
On to `CCCC(=O)OC[C@H]1O[C@@H](c2c(OC(=O)CCC)cc3oc4cc(OC(=O)CCC)c(OC(=O)CCC)cc4c(=O)c3c2OC(=O)CCC)[C@H](OC(=O)CCC)[C@@H](OC(=O)CCC)[C@@H]1OC(=O)CCC` [Compound M11, 1,3,2′,3′,4′,6,6′,7-octa-O-butyrylmangiferin], for which the concentration for half-maximal inhibition (IC50) in experiment [1] amounted to 169 nM; in experiment [2] (cell viability) it was 3210 nM; in experiment [3], 7820 nM; in experiment [4], 415 nM; in experiment [5], 698 nM; in experiment [6] (cell viability), 970 nM. For the same molecule, in experiment [7], the IC50 came to 926 nM. Moreover, the CD20 expression level entry in the experiment with CD20 is reported as “significantly increased”.
On to `CCCC(=O)OC[C@H]1O[C@@H](c2c(O)cc3oc4cc(O)c(O)cc4c(=O)c3c2OC(=O)CCC)[C@H](OC(=O)CCC)[C@@H](OC(=O)CCC)[C@@H]1OC(=O)CCC` [Compound M12, 1,2′,3′,4′,6-penta-O-butyrylmangiferin], for which the IC50 was 91 nM in experiment [1] (Homo sapiens, RPMI-8226); 291 nM in experiment [2] (setting [8]); 954 nM in experiment [3] (Homo sapiens); 5 nM in experiment [4] (Homo sapiens); 657 nM in experiment [5] (Homo sapiens); 89 nM in experiment [6] (setting [9]). Further, the half-inhibitory concentration (IC50) in experiment [7] (Homo sapiens, Rec1) was 951 nM. Besides, in the experiment with CD20, the CD20 expression level result is listed as “significantly increased”.
With `CCCC(=O)OC[C@H]1O[C@@H](c2c(O)cc3oc4cc(O)c(O)cc4c(=O)c3c2O)[C@H](OC(=O)CCC)[C@@H](OC(=O)CCC)[C@@H]1OC(=O)CCC` [Compound M14, 2′,3′,4′,6′-tetra-O-butyrylmangiferin], the IC50 stood at 51 nM in experiment [1] (Homo sapiens, RPMI-8226); 121 nM in experiment [2] (setting [8]); 287 nM in experiment [3] (Homo sapiens); 2 nM in experiment [4] (Homo sapiens); 85 nM in experiment [5] (Homo sapiens); 29 nM in experiment [6] (setting [9]). The same molecule gave a 50% inhibitory concentration (IC50) in experiment [7] (Homo sapiens, Rec1) of 24 nM. Moreover, the CD20 expression level result in the experiment on CD20 is recorded as “significantly increased”.
Consider `CC(C)(C)C(=O)OC[C@H]1O[C@@H](c2c(O)cc3oc4cc(O)c(O)cc4c(=O)c3c2O)[C@H](OC(=O)C(C)(C)C)[C@@H](OC(=O)C(C)(C)C)[C@@H]1OC(=O)C(C)(C)C` [Compound M15, 2′,3′,4′,6′-tetra-O-pivaloylmangiferin], for which the IC50 in experiment [1] (Homo sapiens, RPMI-8226) stood at 71 nM; in experiment [2] (setting [8]), 183 nM; in experiment [3] (Homo sapiens), 357 nM; in experiment [4] (Homo sapiens), 2 nM; in experiment [5] (Homo sapiens), 96 nM; in experiment [6] (setting [9]) it was 91 nM. Further, it took 32 nM to reach half-maximal inhibition in experiment [7] (Homo sapiens, Rec1) (IC50). Moreover, the CD20 expression level result in the experiment on CD20 was “significantly increased”.
On to `CCCCO[C@@H]1[C@@H](OCCCC)[C@H](c2c(O)cc3oc4cc(O)c(O)cc4c(=O)c3c2O)O[C@H](COC(=O)CCC)[C@H]1OC(=O)CCC` [Compound M16, 2′,3′-di-O-butyl-4′,6′-di-O-butyrylmangiferin], for which the IC50 in experiment [1] (Homo sapiens, RPMI-8226) amounted to 42 nM; in experiment [2] (setting [8]), 91 nM; in experiment [3] (Homo sapiens), 198 nM; in experiment [4] (Homo sapiens) it was 11 nM; in experiment [5] (Homo sapiens), 79 nM; in experiment [6] (setting [9]), 21 nM. The midpoint of inhibition in experiment [7] (Homo sapiens, Rec1), the IC50, lay at 20 nM. The CD20 expression level entry with CD20 is listed as “significantly increased”.
In the case of `O=c1c2cc(O)c(O)cc2oc2cc(O)cc(OCCO)c12` [Compound M18, 3,6,7-trihydroxy-1-(2-hydroxyethoxy)-9H-xanthen-9-one], the half-inhibitory concentration (IC50) in experiment [1] (Homo sapiens, RPMI-8226) is 486 nM; in experiment [2] (setting [8]), 6870 nM; in experiment [3] (Homo sapiens), 9180 nM; in experiment [4] (Homo sapiens), 9580 nM; in experiment [5] (Homo sapiens) it was 5590 nM; in experiment [6] (setting [9]), 4700 nM. Besides, half-maximal inhibition in experiment [7] (Homo sapiens, Rec1) (IC50) required 9120 nM. For the same molecule, the CD20 expression level entry in the experiment on CD20 is listed as “significantly increased”.
Consider `O=c1c2cc(O)c(O)cc2oc2cc(O)cc(O)c12` [norathyriol, reference compound], for which the IC50 was found to be 632 nM in experiment [1] (Homo sapiens, RPMI-8226); 8870 nM in experiment [2] (setting [8]); 12300 nM in experiment [3] (Homo sapiens); 18400 nM in experiment [4] (Homo sapiens); 8600 nM in experiment [5] (Homo sapiens); 5800 nM in experiment [6] (setting [9]). For the same molecule, 15800 nM corresponded to half-maximal inhibition in experiment [7] (Homo sapiens, Rec1) (IC50).

These data come from patent publication US20260200903A1, “PHARMACEUTICAL COMPOSITION FOR AMELIORATING MALIGNANT DISEASES” (KINKI UNIVERSITY, priority 2020, published 2026).
